{"source": "patent US6777431B2", "about": "“Non-convalent thrombin inhibitors” (Corvas International, Inc., priority 2001, dated 2004)", "data": [{"target": "Thrombin (Homo sapiens, UniProt P00734)", "test": "Thrombin (fIIa) chromogenic substrate assay (Pefachrome t-PA)", "format": "biochemical", "conditions": "human a-thrombin 0.5 nM, Pefachrome t-PA 250 μM, 30 min preincubation, HBSA pH 7.5; Ki calculated from the IC50", "protocol": "(§1) The ability of compounds of the present invention to act as a selective inhibitor of thrombin activity was assessed by determining the concentration of test-compound which inhibited the activity of this enzyme by 50%, (IC50) or by determining the Ki value, and comparing this value to that determined for all or some of the following related serine proteases: recombinant tissue plasminogen activator (rt-PA), plasmin, activated protein C, chymotrypsin, factor Xa and trypsin. Ki is calculated from the IC50.\n(§2) The buffer used for all assays was HBSA (10 mM HEPES, pH 7.5, 150 mM sodium chloride, 0.1% bovine serum albumin).\nThe assay for IC50 or Ki determinations was conducted by combining in appropriate wells of a Corning microtiter plate, 50 microliters of HBSA, 50 microliters of the test compound at a specified concentration (covering a broad concentration range) diluted in HBSA (or HBSA alone for V0 (uninhibited velocity) measurement), and 50 microliters of the enzyme diluted in HBSA. Following a 30 minute incubation at ambient temperature, 50 microliters of the substrate at the concentrations specified below were added to the wells, yielding a final total volume of 200 microliters. The initial velocity of chromogenic substrate hydrolysis was measured by the change in absorbance at 405 nm using a Thermo Max® Kinetic Microplate Reader over a 5 minute period in which less than 5% of the added substrate was utilized. The concentration of added inhibitor which caused a 50% decrease in the initial rate of hydrolysis was defined as the IC50 value. Ki may be calculated from the IC50 value.\nEnzyme activity was determined using the chromogenic substrate, Pefachrome t-PA (CH3SO2-D-hexahydrotyrosine-glycyl-L-Arginine-p-nitroaniline, obtained from Pentapharm Ltd.). The substrate was reconstituted in deionized water prior to use.\nThe initial velocity of Pefachrome t-PA hydrolysis was measured by the change in absorbance at 405 nm using a Thermo Max® Kinetic Microplate Reader over a 5 minute period in which less than 5% of the added substrate was utilized. The concentration of added inhibitor which caused a 50% decrease in the initial rate of hydrolysis was defined as the IC50 value. Ki was calculated from the IC50 value.", "units": {"Ki": "nM"}, "values": [{"smiles": "Cc1ccc(NS(=O)(=O)Cc2ccccc2)c(=O)n1CCCNc1ccncc1", "note": "[A]", "Ki": "≤ 100"}, {"smiles": "Cc1cnc(NCC(F)(F)c2ccccc2)c(=O)n1CCNc1ccncc1", "note": "[B]", "Ki": "≤ 100"}, {"smiles": "Cc1cnc(NCC(F)(F)c2ccccc2)c(=O)n1CCCNc1ccncc1", "note": "[C]", "Ki": "≤ 100"}, {"smiles": "Cc1cnc(NCCc2ccccc2)c(=O)n1CCCNc1ccncc1", "note": "[D]", "Ki": "100 to 300"}, {"smiles": "Cc1ccc(NS(=O)(=O)Cc2ccccc2)c(=O)n1CCCN(C)c1ccncc1", "note": "[E]", "Ki": "≤ 100"}, {"smiles": "Cc1ccc(NS(=O)(=O)Cc2ccc(Cl)cc2)c(=O)n1CCCNc1ccncc1", "note": "[F]", "Ki": "≤ 100"}, {"smiles": "Cc1ccc(NS(=O)(=O)Cc2ccccc2)c(=O)n1CCCNc1ncnc2[nH]cnc12", "note": "[G]", "Ki": "100 to 300"}, {"smiles": "Cc1ccc(NS(=O)(=O)Cc2ccccc2)c(=O)n1CCCNc1ccc2ncccc2c1", "note": "[H]", "Ki": "≤ 100"}, {"smiles": "Cc1ccc(NS(=O)(=O)Cc2ccccc2)c(=O)n1CCCNc1ccc2cc[nH]c2c1", "note": "[I]", "Ki": "≤ 100"}, {"smiles": "Cc1ccc(NS(=O)(=O)Cc2ccccc2)c(=O)n1CCCNc1ccncc1F", "note": "[J]", "Ki": "≤ 100"}, {"smiles": "Cc1ccc(NS(=O)(=O)Cc2ccc(Cl)cc2)c(=O)n1CCCNc1ccncc1F", "note": "[K]", "Ki": "≤ 100"}, {"smiles": "Cc1ccc(NS(=O)(=O)Cc2ccccc2)c(=O)n1CCCNc1ccnc2ccccc12", "note": "[L]", "Ki": "≤ 100"}, {"smiles": "Cc1ccc(NS(=O)(=O)Cc2ccccc2)c(=O)n1CCCNc1ccncn1", "note": "[M]", "Ki": "≤ 100"}, {"smiles": "Cc1ccc(NS(=O)(=O)Cc2ccccc2)c(=O)n1CCCNc1ccc(N)nc1", "note": "[N]", "Ki": "100 to 300"}, {"smiles": "Cc1cnc(NCCCc2ccccc2)c(=O)n1CCCNc1ccncc1", "note": "[O]", "Ki": "100 to 300"}, {"smiles": "Cc1ccc(NS(=O)(=O)Cc2ccccc2)c(=O)n1CCCNc1cccc2ncccc12", "note": "[P]", "Ki": "100 to 300"}, {"smiles": "Cc1ccc(NS(=O)(=O)Cc2ccccc2)c(=O)n1CCCn1ncc2ccc(N)cc21", "note": "[Q]", "Ki": "300 to 2500"}, {"smiles": "Cc1ccc(NS(=O)(=O)Cc2ccccc2)c(=O)n1CCCNc1cccc(N)n1", "note": "[R]", "Ki": "300 to 2500"}]}, {"target": "T1, Trypsin (Bos taurus, UniProt P00760)", "T1 construct": "Purified (3×-crystallized; TRL3) bovine pancreatic trypsin was obtained from Worthington Biochemical Corp; purchased Worthington Biochemical Corp. TRL3; host or cells: bovine pancreas", "T1 sequence (P00760 24-246)": "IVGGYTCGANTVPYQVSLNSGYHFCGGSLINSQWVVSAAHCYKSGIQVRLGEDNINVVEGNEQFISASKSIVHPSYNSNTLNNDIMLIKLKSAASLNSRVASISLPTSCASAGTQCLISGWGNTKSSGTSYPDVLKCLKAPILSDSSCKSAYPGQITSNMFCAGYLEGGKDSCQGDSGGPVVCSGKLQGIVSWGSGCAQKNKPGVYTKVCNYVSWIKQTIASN", "test": "Trypsin chromogenic substrate assay (S-2222)", "format": "biochemical", "conditions": "bovine pancreatic trypsin 0.5 nM, S-2222 250 μM, HBSA pH 7.5", "protocol": "as §1, §2\nThe assay for IC50 or Ki determinations was conducted by combining in appropriate wells of a Corning microtiter plate, 50 microliters of HBSA, 50 microliters of the test compound at a specified concentration (covering a broad concentration range) diluted in HBSA (or HBSA alone for V0 (uninhibited velocity) measurement), and 50 microliters of the enzyme diluted in HBSA. […] The initial velocity of chromogenic substrate hydrolysis was measured by the change in absorbance at 405 nm using a Thermo Max® Kinetic Microplate Reader over a 5 minute period in which less than 5% of the added substrate was utilized. […] Ki may be calculated from the IC50 value. […]", "units": {"IC50": "nM"}, "values": [{"smiles": "Cc1ccc(NS(=O)(=O)Cc2ccccc2)c(=O)n1CCCNc1ccncc1", "note": "[A]", "IC50": "300 to 2500"}]}]}
